From patent publication US20130129626A1, “IN VIVO IMAGING AGENTS” (H[…] LIMITED, priority 2006, published 2013)

Assays:
[1] = Parallel Artificial Membrane Permeability Assay (PAMPA); assay type: in vitro ADME; settings: prediction of blood brain barrier penetration by passive diffusion, high Pe>4.0×10^-06, low Pe<2.0×10^-06 cm/sec
Protocol: The permeability of the CCR compounds was measured in a Parallel Artificial Membrane Permeability Assay (PAMPA) which gives a prediction of the blood brain barrier penetration by passive diffusion [Di et al, Eur. J. Med. Chem., 38(3), 223-232 (2003)].
The commonly accepted classification ranges for this PAMPA assay are as follows: • High predicted passive BBB permeation: Pe>4.0×10^−06 cm/sec. • Low predicted passive BBB permeation: Pe<2.0×10^−06 cm/sec.
Uncertain prediction of BBB permeation: 2.0×10^−06 cm/sec<Pe<4.0×10^−06 cm/sec.

CCR1 = biological target: T1, CCR1 (Homo sapiens, UniProt P32246); test: CCR1 binding assay ([125I]-MIP-1α displacement)
T1 construct: expressed in transfected cells; host or cells: CHO-K1
T1 sequence (P32246 1-355): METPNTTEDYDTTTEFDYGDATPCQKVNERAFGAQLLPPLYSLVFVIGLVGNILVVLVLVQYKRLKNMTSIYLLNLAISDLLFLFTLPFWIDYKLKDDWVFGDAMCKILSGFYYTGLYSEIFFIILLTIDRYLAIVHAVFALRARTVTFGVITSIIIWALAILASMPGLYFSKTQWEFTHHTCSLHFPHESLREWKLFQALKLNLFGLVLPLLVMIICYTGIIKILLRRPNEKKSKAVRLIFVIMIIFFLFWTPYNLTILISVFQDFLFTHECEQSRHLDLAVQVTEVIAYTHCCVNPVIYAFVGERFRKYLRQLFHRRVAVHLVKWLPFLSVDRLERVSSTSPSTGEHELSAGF
Protocol: The CCR1 binding assay was performed under the following conditions, according to a method that was adapted from the literature [Ben-Baruch et al., J. Biol. Chem., 270(38), 22123-8 (1995); Pease et al., J. Biol. Chem., 273(32), 19972-6 (1998)].
Thus, Compound 8 was incubated for 3 hours at 25° C. in 50 mM HEPES, pH7.4 containing 1 mM CaCl2, 0.5% BSA, 5 mM MgCl2 and 1% DMSO with Human recombinant CHO-K1 cells in the presence of 0.02 nM [^125I]-MIP-1α. MIP-1α is Macrophage Inflammatory Protein 1α (ligand of CCR1 and CCR5).

CCR2B = biological target: T2, CCR2B (Homo sapiens, UniProt P41597); test: CCR2B binding assay ([125I]-MCP-1 displacement)
T2 construct: expressed in transfected cells; host or cells: CHO-K1
T2 sequence (P41597 1-360 isoform P41597-2): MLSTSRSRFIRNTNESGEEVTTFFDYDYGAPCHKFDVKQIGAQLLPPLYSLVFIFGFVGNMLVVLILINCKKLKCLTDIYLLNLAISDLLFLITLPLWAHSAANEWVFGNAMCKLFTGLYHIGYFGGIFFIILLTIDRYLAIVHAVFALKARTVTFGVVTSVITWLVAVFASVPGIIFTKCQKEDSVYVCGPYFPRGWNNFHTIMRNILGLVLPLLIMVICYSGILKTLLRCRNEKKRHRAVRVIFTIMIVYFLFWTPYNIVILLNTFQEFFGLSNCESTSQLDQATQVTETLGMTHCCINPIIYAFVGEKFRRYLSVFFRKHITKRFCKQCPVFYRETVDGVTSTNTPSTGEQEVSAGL
Protocol: CCR2B binding assay was performed under the following conditions, according to a method that was adapted from the literature [Gong et al., J. Biol. Chem., 272, 11682-5 (1997); Moore et al., J. Leukoc. Biol., 62, 911-5 (1997)].
Thus, Compound 8 was incubated for 1 hour at 25° C. in 25 mM HEPES, pH7.4 containing 1 mM CaCl2, 0.5% BSA, 5 mM MgCl2, 0.1% NaN3 and 1% DMSO with Human recombinant CHO-K1 cells in the presence of 0.1 nM [^125I]-MCP-1. MCP-1 is monocyte chemoattractant protein (the ligand of CCR2).

CCR5 = biological target: T3, CCR5 (Homo sapiens, UniProt P51681); test: CCR5 binding assay ([125I]-MIP-1β displacement)
T3 construct: expressed in transfected cells; host or cells: CHO-K1
Protocol: CCR5 binding assay was performed under the following conditions, according to a method that was adapted from the literature [Samson et al., J. Biol. Chem., 272, 24934-41 (1997)].
Thus, Compound 8 was incubated for 2 hours at 25° C. in 50 mM HEPES, pH7.4 containing 1 mM CaCl2, 0.5% BSA, 5 mM MgCl2 and 1% DMSO with Human recombinant CHO-K1 cells in the presence of 0.1 nM [^125I]-MIP-1β, where MIP-1β is Macrophage Inflammatory Protein 1β.

T3 sequence (P51681 whole entry): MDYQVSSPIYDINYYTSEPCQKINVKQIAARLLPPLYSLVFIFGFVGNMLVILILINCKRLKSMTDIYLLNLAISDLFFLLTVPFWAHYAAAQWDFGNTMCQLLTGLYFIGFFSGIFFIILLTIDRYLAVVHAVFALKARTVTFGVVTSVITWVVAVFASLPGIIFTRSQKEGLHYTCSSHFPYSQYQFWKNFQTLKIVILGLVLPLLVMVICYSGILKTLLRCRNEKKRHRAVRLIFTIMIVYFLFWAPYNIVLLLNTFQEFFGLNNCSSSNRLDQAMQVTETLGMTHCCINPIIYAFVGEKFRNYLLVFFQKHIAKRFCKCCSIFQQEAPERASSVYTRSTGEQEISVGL

With `Cc1ccc(N(CCCN2CCC(Cc3ccc(F)cc3)CC2)C(=O)C2CCN(C(=O)CF)CC2)cc1Cl` [Compound 8] the Papp [1] was 6.8 ×10⁻⁶ cm/s, the inhibition at 10 µM (CCR1; 10 μM Compound 8, Human recombinant CHO-K1 cells, 0.02 nM [125I]-MIP-1α, 3 hours at 25° C.) was 32% and the “CCR1 binding (in words)” value (CCR1; summary statement of Example 6) was “does not bind”. For the same compound, the “inhibition of the binding of MCP-1 to CCR2B” value (CCR2B; 10 μM concentration, Human recombinant CHO-K1 cells, 0.1 nM [125I]-MCP-1, 1 hour at 25° C.) was “did not inhibit”, the “CCR2B binding (in words)” value (CCR2B; summary statement of Example 6) was “does not bind” and the Ki (CCR5) was 0.79 nM. For the same compound, the “selectivity for CCR5 over CCR1 and CCR2B (in words)” value (CCR5; compared with CCR1 and CCR2B binding at 10 μM) was “selective for CCR5” and the “CCR5 binding (in words)” value (CCR5; summary statement of Example 6) was “high affinity”.
